For one experiment, the target named is T1, CDK2/Cyclin E1 (Homo sapiens, UniProt P24941).
T1 construct: purchased 14-475
Kind of experiment: Caliper Assay (LabChip EZ Reader mobility shift assay), inhibition of CDK2/Cyclin E1 activity. The experiment is classed as biochemical. The conditions noted are these: 2.5 nM CDK2/Cyclin E1(14-475), 100 μM ATP, 30 min preincubation; read-out: Caliper Assay (CDK2/CCNE1): IC50. How it is done: Inhibition of CDK2/Cyclin E1 activity in the presence of compounds of the present disclosure was evaluated using a Caliper LabChip® EZ Reader mobility shift assay. In the assay, activated CDK2/Cyclin E1 catalyzes the phosphorylation of a fluorescently tagged peptide 5-FAM-QSPKKG-CONH2 (PerkinElmer, FL Peptide 18) which induces a difference in capillary electrophoresis mobility. The peptide substrate and product were measured, and the conversion ratio was used to determine the inhibition (as % activity and IC50 values) of CDK2/Cyclin E1. Reactions contained 50 mM HEPES pH 7.5, 10 mM MgCl2, 1 mM EDTA, 2 mM DTT, 0.01% Brij35, 0.5 mg/mL BSA, 0.1% DMSO, 2.5 nM CDK2/Cyclin E1(14-475), 100 μM ATP, and 1.5 μM fluorescent peptide substrate.
Dose titrations of inhibitors in 100% DMSO were combined with 3.25 nM CDK2/Cyclin E1(14-475) and 130 μM of ATP in reaction buffer. The mixtures were incubated for 30 minutes before the addition of fluorescent peptide substrate to initiate the kinase reaction. The final conditions were 2.5 nM CDK2/Cyclin E1(14-475), 100 μM ATP, and 1.5 μM fluorescent peptide. The reactions were stopped after 100 minutes with the addition of EDTA (6 mM final EDTA concentration). The stopped reactions were analyzed on a Caliper LabChip© EZ Reader II. The conversion ratios were normalized to yield % activity, plotted against compound concentration, and fit to a four-parameter equation to determine the IC50 for each compound.

In another experiment the test system is Kuramochi cells. As to the kind of experiment: IncuCyte Kuramochi Assay (cell proliferation). The format is cell-based. The conditions noted are these: 72 h, Kuramochi cells labeled with mApple-H2B, cell count, read-out: IncuCyte - Kuramochi RB-WT: IC50. As for the experimental part: IncuCyte® assay was used to measure the effect of disclosed compounds on cell proliferation. Fluorescent microscopy images of cells were taken immediately after compound treatment and 72 hours later. Image analysis software was used to obtain cell counts as a function of compound concentration. Kuramochi cells labeled with mApple-H2B were seeded on 384-well assay-ready plates. Plates were placed in an IncuCyte® (Sartorius) and scanned at 0 and 72 hours. IncuCyte® software was used to count the number of fluorescent nuclei in each well. The fold change in cell count from 0 to 72 hours in wells treated with increasing compounds concentrations (10 pts, ½ log dilution, 20 μM top concentration) was normalized to DMSO control wells. The normalized cell counts were fit with dose response curves and a […] was calculated.

As for `CC1(C)C[C@@H]1C(=O)N1CC2(CN(C(=O)c3cnn(Cc4ccccc4)c3)CC2c2nnc(Cc3ccncc3)o2)C1` (stereo partly drawn) [I-23], the IC50 is 100 to 1000 nM on CDK2/Cyclin E1 and over 10 µM in the experiment on Kuramochi cells.

As for `CC1(C)C[C@@H]1C(=O)N1CC2(CN(C(=O)c3cnn(Cc4ccccc4)c3)CC2c2nnc(Cc3ccc(Cl)c(Cl)c3)o2)C1` (stereo partly drawn) [I-24], the IC50 on CDK2/Cyclin E1 lay within 100 to 1000 nM; in the experiment with Kuramochi cells it was 5 to 10 µM.

As for `CC1(C)C[C@@H]1C(=O)N1CC2(CN(C(=O)c3cncs3)CC2c2nnc(Cc3cccc(C4CCOCC4)n3)o2)C1` (stereo partly drawn) [I-25], the IC50 at CDK2/Cyclin E1 is 100 to 1000 nM; in the experiment on Kuramochi cells it was over 10 µM.

`CC1(C)C[C@@H]1C(=O)N1CC2(CN(C(=O)c3cncs3)CC2c2nnc(Cc3cc4ccccc4[nH]3)o2)C1` (stereo partly drawn) [I-26]: the IC50 at CDK2/Cyclin E1 was 1000 to 10000 nM; in the experiment on Kuramochi cells, over 10 µM.

Consider `CC1(C)C[C@@H]1C(=O)N1CC2(CN(C(=O)c3cncs3)CC2c2nnc(Cc3ccc4c(c3)OCCO4)o2)C1` (stereo partly drawn) [I-27], for which the values for the IC50 at CDK2/Cyclin E1 and with Kuramochi cells were 100 to 1000 nM and over 10 µM, respectively.

For the compound `CC1(C)C[C@@H]1C(=O)N1CC2(CN(C(=O)c3cncs3)CC2c2nnc(CCc3ccc(Cl)c(Cl)c3)o2)C1` (stereo partly drawn) [I-28], the IC50 on CDK2/Cyclin E1 was 100 to 1000 nM; with Kuramochi cells, over 10 µM.

`CC1(C)C[C@@H]1C(=O)N1CC2(CN(C(=O)c3cncs3)CC2c2nnc(Cc3cc[nH]n3)o2)C1` (stereo partly drawn) [I-29, (8-(5-((1H-pyrazol-3-yl)methyl)-1,3,4-oxadiazol-2-yl)-2-((S)-2,2-dimethylcyclopropane-1-carbonyl)-2,6-diazaspiro[3.4]octan-6-yl)(thiazol-5-yl)methanone]: the values for the IC50 at CDK2/Cyclin E1 and with Kuramochi cells were over 10000 nM and over 10 µM, respectively.

For `CC1(C)C[C@@H]1C(=O)N1CC2(CN(C(=O)c3cncs3)CC2c2nnc(Cc3ccc(Cl)cc3)o2)C1` (stereo partly drawn) [I-30], the results for the IC50 at CDK2/Cyclin E1 and in the experiment on Kuramochi cells were 1000 to 10000 nM and over 10 µM, respectively.

On to `CC1(C)C[C@@H]1C(=O)N1CC2(CN(C(=O)c3cncs3)CC2c2nnc(Cc3ccc(C4CCOCC4)c(Cl)c3)o2)C1` (stereo partly drawn) [I-31], for which the IC50 is 100 to 1000 nM at CDK2/Cyclin E1 and over 10 µM in the experiment on Kuramochi cells.

On to `CC1(C)C[C@@H]1C(=O)N1CC2(CN(C(=O)c3cncs3)CC2c2nnc(Cc3cccc4c3OCCO4)o2)C1` (stereo partly drawn) [I-33], for which the IC50 is 1000 to 10000 nM at CDK2/Cyclin E1 and over 10 µM in the experiment with Kuramochi cells.

Take `COc1ccccc1C(F)(F)c1nnc(C2CN(C(=O)c3cncs3)CC23CN(C(=O)[C@H]2CC2(C)C)C3)o1` (stereo partly drawn) [I-34]: the IC50 on CDK2/Cyclin E1 is 1000 to 10000 nM; in the experiment on Kuramochi cells, over 10 µM.

For `CC1(C)C[C@@H]1C(=O)N1CC2(C1)CN(c1ncnc3ncsc13)CC2c1nnc(C(F)(F)c2ccc(Cl)cc2)o1` (stereo partly drawn) [I-37, (8-(5-((4-chlorophenyl)difluoromethyl)-1,3,4-oxadiazol-2-yl)-6-(thiazolo[4,5-d]pyrimidin-7-yl)-2,6-diazaspiro[3.4]octan-2-yl)((S)-2,2-dimethylcyclopropyl)methanone], the IC50 was 1000 to 10000 nM on CDK2/Cyclin E1 and over 10 µM in the experiment on Kuramochi cells.

On to `CC(C)(c1ccc(Cl)c(Cl)c1)c1nnc(C2CN(C(=O)c3cncs3)CC23CN(C(=O)[C@H]2CC2(C)C)C3)o1` (stereo partly drawn) [I-39], for which the IC50 at CDK2/Cyclin E1 is 100 to 1000 nM; with Kuramochi cells it was over 10 µM.

Turning to `CC1(C)C[C@@H]1C(=O)N1CC2(CN(C(=O)c3cncs3)CC2c2nnc(C(F)(F)c3ccc(C4CC4)cc3)o2)C1` (stereo partly drawn) [I-40], the IC50 on CDK2/Cyclin E1 was 100 to 1000 nM; in the experiment with Kuramochi cells, over 10 µM.

As to `O=C(c1cncs1)N1CC(c2nnc(Cc3ccc(Cl)c(Cl)c3)o2)C2(C1)CN(c1nc3ccccc3o1)C2` (stereo not drawn) [I-41], the IC50 on CDK2/Cyclin E1 was over 10000 nM; in the experiment on Kuramochi cells, over 10 µM.

`CCOc1cc(C)nn1C(C)c1nc(C2CN(C(=O)c3cncs3)CC23CN(C(=O)[C@H]2CC2(C)C)C3)no1` (stereo partly drawn) [I-42, (2-((S)-2,2-dimethylcyclopropane-1-carbonyl)-8-(5-(1-(5-ethoxy-3-methyl-1H-pyrazol-1-yl)ethyl)-1,2,4-oxadiazol-3-yl)-2,6-diazaspiro[3.4]octan-6-yl)(thiazol-5-yl)methanone]: the values for the IC50 on CDK2/Cyclin E1 and with Kuramochi cells were 1000 to 10000 nM and over 10 µM, respectively.

Turning to `CC1(C)C[C@@H]1C(=O)N1CC2(CN(C(=O)c3ccnnc3)CC2c2nnc(C(F)(F)c3ccc(Cl)c(Cl)c3)o2)C1` (stereo partly drawn) [I-43, (8-(5-((3,4-dichlorophenyl)difluoromethyl)-1,3,4-oxadiazol-2-yl)-2-((S)-2,2-dimethylcyclopropane-1-carbonyl)-2,6-diazaspiro[3.4]octan-6-yl)(pyridazin-4-yl)methanone], the IC50 on CDK2/Cyclin E1 is 1000 to 10000 nM; with Kuramochi cells, over 10 µM.

For `CC1(C)C[C@@H]1C(=O)N1CC2(CN(C(=O)c3cnco3)CC2c2nnc(C(F)(F)c3ccc(Cl)c(Cl)c3)o2)C1` (stereo partly drawn) [I-44], the IC50 at CDK2/Cyclin E1 is 1000 to 10000 nM; in the experiment on Kuramochi cells it was over 10 µM.

Regarding `CC1(C)C[C@@H]1C(=O)N1CC2(CN(C(=O)c3ncccn3)CC2c2nnc(C(F)(F)c3ccc(Cl)c(Cl)c3)o2)C1` (stereo partly drawn) [I-46], the IC50 was over 10000 nM at CDK2/Cyclin E1 and over 10 µM with Kuramochi cells.

On to `O=C(c1cncs1)N1CC(c2nnc(Cc3ccc(Cl)c(Cl)c3)o2)C2(C1)CN(c1ncc(C(F)(F)F)cn1)C2` (stereo not drawn) [I-47], for which the IC50 is over 10000 nM at CDK2/Cyclin E1 and over 10 µM with Kuramochi cells.

Consider `O=C(c1cncs1)N1CC(c2nnc(Cc3ccc(Cl)c(Cl)c3)o2)C2(C1)CN(c1ncccn1)C2` (stereo not drawn) [I-49], for which the IC50 is over 10000 nM at CDK2/Cyclin E1 and over 10 µM in the experiment on Kuramochi cells.

Take `CC1(C)C[C@@H]1C(=O)N1CC2(CN(C(=O)c3cncs3)CC2c2nnc(Cc3nc(C4CCOCC4)ccc3F)o2)C1` (stereo partly drawn) [I-50, (2-((S)-2,2-dimethylcyclopropane-1-carbonyl)-8-(5-((3-fluoro-6-(tetrahydro-2H-pyran-4-yl)pyridin-2-yl)methyl)-1,3,4-oxadiazol-2-yl)-2,6-diazaspiro[3.4]octan-6-yl)(thiazol-5-yl)methanone]: the IC50 at CDK2/Cyclin E1 is 1000 to 10000 nM; in the experiment with Kuramochi cells it was over 10 µM.

For `CC1(C)C[C@@H]1C(=O)N1CC2(CN(C(=O)c3cncs3)CC2c2cn(Cc3ccc(Cl)c(Cl)c3)nn2)C1` (stereo partly drawn) [I-51, (8-(1-(3,4-dichlorobenzyl)-1H-1,2,3-triazol-4-yl)-2-((S)-2,2-dimethylcyclopropane-1-carbonyl)-2,6-diazaspiro[3.4]octan-6-yl)(thiazol-5-yl)methanone], the IC50 at CDK2/Cyclin E1 was over 10000 nM; with Kuramochi cells, over 10 µM.

With `CC1(C)C[C@@H]1C(=O)N1CC2(CN(C(=O)c3cn[nH]c3)CC2c2nnc(C(F)(F)c3ccc(Cl)c(Cl)c3)o2)C1` (stereo partly drawn) [I-52], the IC50 at CDK2/Cyclin E1 was 100 to 1000 nM; with Kuramochi cells, over 10 µM.

For `CC1(C)C[C@@H]1C(=O)N1CC2(CN(C(=O)c3cccnn3)CC2c2nnc(C(F)(F)c3ccc(Cl)c(Cl)c3)o2)C1` (stereo partly drawn) [I-53], the IC50 on CDK2/Cyclin E1 was over 10000 nM; in the experiment on Kuramochi cells, over 10 µM.

`CC1(C)C[C@@H]1C(=O)N1CC2(CN(C(=O)c3cnc(C(F)(F)F)s3)CC2c2nnc(C(F)(F)c3ccc(Cl)c(Cl)c3)o2)C1` (stereo partly drawn) [I-54]: the figures for the IC50 at CDK2/Cyclin E1 and in the experiment on Kuramochi cells were over 10000 nM and over 10 µM, respectively.

On to `COc1ccc(C2CCOCC2)nc1Cc1nnc(C2CN(C(=O)c3cncs3)CC23CN(C(=O)[C@H]2CC2(C)C)C3)o1` (stereo partly drawn) [I-55], for which the values for the IC50 on CDK2/Cyclin E1 and in the experiment on Kuramochi cells were 100 to 1000 nM and over 10 µM, respectively.

Turning to `CC1(C)C[C@@H]1C(=O)N1CC2(CN(C(=O)c3cncnc3)CC2c2nnc(C(F)(F)c3ccc(Cl)c(Cl)c3)o2)C1` (stereo partly drawn) [I-56], the results for the IC50 at CDK2/Cyclin E1 and in the experiment on Kuramochi cells were 1000 to 10000 nM and over 10 µM, respectively.

Take `CC(C)(C(=O)N1CC2(CN(C(=O)c3cncs3)CC2c2nnc(C(F)(F)c3ccc(Cl)c(Cl)c3)o2)C1)C(F)(F)F` (stereo not drawn) [I-57]: the IC50 on CDK2/Cyclin E1 was 100 to 1000 nM; in the experiment on Kuramochi cells, over 10 µM.

Turning to `O=C(c1cncs1)N1CC(c2nnc(C(F)(F)c3ccc(Cl)c(Cl)c3)o2)C2(C1)CN(c1ncccn1)C2` (stereo not drawn) [I-59, (8-(5-((3,4-dichlorophenyl)difluoromethyl)-1,3,4-oxadiazol-2-yl)-2-(pyrimidin-2-yl)-2,6-diazaspiro[3.4]octan-6-yl)(thiazol-5-yl)methanone], the IC50 on CDK2/Cyclin E1 is over 10000 nM; in the experiment on Kuramochi cells it was over 10 µM.

On to `O=C(c1cncs1)N1CC(c2nnc(Cc3ccc(Cl)c(Cl)c3)o2)C2(C1)CN(c1cccc[n+]1[O-])C2` (stereo not drawn) [I-60], for which the IC50 on CDK2/Cyclin E1 is over 10000 nM; in the experiment with Kuramochi cells, over 10 µM.

`CC1(C)C[C@@H]1C(=O)N1CC2(CN(C(=O)c3cncs3)CC2c2nnc(C3(c4ccc(Cl)c(Cl)c4)CC(O)C3)o2)C1` (stereo partly drawn) [I-61]: the IC50 at CDK2/Cyclin E1 is 10 to 100 nM; with Kuramochi cells, over 10 µM.

For `CC(C)(c1coc(C2CCCC2)n1)c1nc(C2CN(C(=O)c3cncs3)CC23CN(C(=O)[C@H]2CC2(C)C)C3)no1` (stereo partly drawn) [I-62], the values for the IC50 on CDK2/Cyclin E1 and in the experiment with Kuramochi cells were 10 to 100 nM and 5 to 10 µM, respectively.

These data come from patent US20260151375A1, “CDK2 INHIBITORS AND METHODS OF USING THE SAME” (Cedilla Therapeutics, Inc., priority 2022, published 2026).
